Reference: ChEMBL document CHEMBL4196131 (J Med Chem, 2018)
Activity calls are given as the source filed them. No cut-off for these calls is given here.

Legend:
MCF7 [1] = test: Antitumor activity against human MCF7 cells xenografted in nude Balb/c mouse assessed as tumor growth inhibition at 25 mg/kg, po administered once every 2 days via gavage measured on day 27; format: functional; conditions: read-out: TGI
MCF7 [2] = test: Antitumor activity against human MCF7 cells xenografted in nude Balb/c mouse assessed as reduction in tumor burden at 25 mg/kg, po administered once every 2 days via gavage measured on day 12; format: functional; set-up: scale not given: the % may be the effect or the level left
Estrogen receptor [3] = target: T1, Estrogen receptor (Homo sapiens, UniProt P03372); test: Binding affinity to human ERalpha LBD after 2 hrs in absence of light by competitive fluorometric binding assay
T1 sequence (P03372 whole entry): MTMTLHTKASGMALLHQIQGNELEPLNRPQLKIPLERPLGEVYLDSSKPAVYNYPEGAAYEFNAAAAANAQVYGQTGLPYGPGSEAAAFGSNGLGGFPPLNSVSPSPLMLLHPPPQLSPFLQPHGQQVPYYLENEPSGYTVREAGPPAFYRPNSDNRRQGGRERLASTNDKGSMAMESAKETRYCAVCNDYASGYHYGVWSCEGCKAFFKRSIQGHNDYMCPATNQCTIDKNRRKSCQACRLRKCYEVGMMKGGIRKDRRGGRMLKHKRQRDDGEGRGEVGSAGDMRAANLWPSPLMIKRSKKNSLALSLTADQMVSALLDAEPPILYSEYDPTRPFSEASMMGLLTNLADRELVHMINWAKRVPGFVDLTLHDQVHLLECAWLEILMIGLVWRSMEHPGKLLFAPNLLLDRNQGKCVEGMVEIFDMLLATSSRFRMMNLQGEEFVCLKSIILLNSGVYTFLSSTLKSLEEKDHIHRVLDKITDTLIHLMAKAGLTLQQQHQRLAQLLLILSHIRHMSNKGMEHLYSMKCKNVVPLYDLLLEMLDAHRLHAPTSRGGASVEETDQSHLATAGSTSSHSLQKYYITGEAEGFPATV

Estrogen receptor beta [4] = target: T2, Estrogen receptor beta (Homo sapiens, UniProt Q92731); test: Antagonist activity at human ERbeta expressed in HEK293T cells after 24 hrs by ERE-based dual luciferase reporter gene assay relative to E2; format: cell-based; set-up: concentration or dose not given beside the values
Estrogen receptor beta [5] = target: T2, Estrogen receptor beta; test: Binding affinity to human ERbeta LBD after 2 hrs in absence of light by competitive fluorometric binding assay
Estrogen receptor beta [6] = target: T2, Estrogen receptor beta; test: Antagonist activity at human ERbeta expressed in HEK293T cells after 24 hrs by ERE-based dual luciferase reporter gene assay; format: cell-based
MCF7 [7] = test: Antitumor activity against human MCF7 cells xenografted in nude Balb/c mouse assessed as reduction in tumor burden at 17.5 mg/kg, po administered once every 2 days via gavage measured every 3 days; format: functional, organism-based
MCF7 [8] = test: cells; conditions: Homo sapiens, MCF7, 72 h
[9] = target: T3, Estrogen receptor (Homo sapiens) (UniProt P03372); test: Agonist activity at human ERalpha expressed in HEK293T cells after 24 hrs by ERE-based dual luciferase reporter gene assay relative to E2; format: cell-based
T3 sequence (whole entry): T1 sequence (P03372 whole entry)

Estrogen receptor beta [10] = target: T2, Estrogen receptor beta; test: Agonist activity at human ERbeta expressed in HEK293T cells after 24 hrs by ERE-based dual luciferase reporter gene assay relative to E2; format: cell-based
[11] = target: T3, Estrogen receptor (Homo sapiens); test: Antagonist activity at human ERalpha expressed in HEK293T cells after 24 hrs by ERE-based dual luciferase reporter gene assay relative to E2; format: cell-based
Mus musculus [12] = test: Antiinflammatory activity in Balb/c mouse xenografted with human MCF7 cells assessed as inhibition of TNFalpha expression in tissues around the tumor at 17.5 to 25 mg/kg, po administered once every 2 days via gavage measured after 2 weeks post dose; format: functional, organism-based
MCF7 [13] = test: Antiproliferative activity against human MCF7 cells at 5 to 20 uM after 48 hrs in presence of JSH-23 by MTT assay
Estrogen receptor [14] = target: T1, Estrogen receptor; test: Antagonist activity at human ERalpha expressed in HEK293T cells after 24 hrs by ERE-based dual luciferase reporter gene assay; format: cell-based
[15] = Inhibition of NFkappaB in mouse RAW 264.7 cells assessed as reduction in LPS induced NO production after 24 hrs by Griess assay; format: cell-based; conditions: RAW264.7, 24 h
Mus musculus [16] = test: Antiinflammatory activity in Balb/c mouse xenografted with human MCF7 cells assessed as inhibition of NFkappaB expression in tissues around the tumor at 17.5 to 25 mg/kg, po administered once every 2 days via gavage measured after 2 weeks post dose; format: functional, organism-based
Mus musculus [17] = species: Mus musculus; test: Inhibition of NFkappaB in mouse RAW 264.7 cells assessed as reduction in LPS induced NO production at 10 uM after 24 hrs by Griess assay relative to control; format: cell-based
Estrogen receptor beta [18] = target: T2, Estrogen receptor beta; test: Agonist activity at human ERbeta expressed in HEK293T cells after 24 hrs by ERE-based dual luciferase reporter gene assay; format: cell-based
Mus musculus [19] = test: Antiinflammatory activity in Balb/c mouse xenografted with human MCF7 cells assessed as inhibition of IL6 expression in tissues around the tumor at 17.5 to 25 mg/kg, po administered once every 2 days via gavage measured after 2 weeks post dose; format: functional, organism-based
Mus musculus [20] = test: Toxicity in nude Balb/c mouse xenografted with human MCF7 cells assessed as reduction in body weight at 17.5 to 25 mg/kg, po administered once every 2 days via gavage measured every 3 days; format: organism-based; conditions: in vivo
MCF7 [21] = test: Antiproliferative activity against human MCF7 cells after 72 hrs in presence of resveratrol by MTT assay; format: functional, cell-based; conditions: MCF7, 72 h
[22] = Inhibition of NFkappaB in mouse RAW 264.7 cells assessed as reduction in LPS induced NO production after 24 hrs in presence of resveratrol by Griess assay relative to control; format: cell-based; conditions: RAW264.7, 24 h
Mus musculus [23] = species: Mus musculus; test: Inhibition of NFkappaB in mouse RAW 264.7 cells assessed as reduction in LPS induced NO production at 10 uM after 24 hrs in presence of resveratrol by Griess assay relative to control; format: cell-based
[24] = Inhibition of NFkappaB in mouse RAW 264.7 cells assessed as reduction in LPS induced NO production after 24 hrs in presence of OBHS by Griess assay; conditions: RAW264.7, 24 h
MCF7 [25] = test: Antiproliferative activity against human MCF7 cells after 72 hrs in presence of OBHS by MTT assay; conditions: MCF7, 72 h
Mus musculus [26] = species: Mus musculus; test: Inhibition of NFkappaB in mouse RAW 264.7 cells assessed as reduction in LPS induced NO production at 10 uM after 24 hrs in presence of OBHS by Griess assay relative to control; format: cell-based
Estrogen receptor [27] = target: T1, Estrogen receptor; test: Agonist activity at human ERalpha expressed in HEK293T cells after 24 hrs by ERE-based dual luciferase reporter gene assay; format: cell-based

T2 sequence (Q92731 whole entry, the tested form may be a part): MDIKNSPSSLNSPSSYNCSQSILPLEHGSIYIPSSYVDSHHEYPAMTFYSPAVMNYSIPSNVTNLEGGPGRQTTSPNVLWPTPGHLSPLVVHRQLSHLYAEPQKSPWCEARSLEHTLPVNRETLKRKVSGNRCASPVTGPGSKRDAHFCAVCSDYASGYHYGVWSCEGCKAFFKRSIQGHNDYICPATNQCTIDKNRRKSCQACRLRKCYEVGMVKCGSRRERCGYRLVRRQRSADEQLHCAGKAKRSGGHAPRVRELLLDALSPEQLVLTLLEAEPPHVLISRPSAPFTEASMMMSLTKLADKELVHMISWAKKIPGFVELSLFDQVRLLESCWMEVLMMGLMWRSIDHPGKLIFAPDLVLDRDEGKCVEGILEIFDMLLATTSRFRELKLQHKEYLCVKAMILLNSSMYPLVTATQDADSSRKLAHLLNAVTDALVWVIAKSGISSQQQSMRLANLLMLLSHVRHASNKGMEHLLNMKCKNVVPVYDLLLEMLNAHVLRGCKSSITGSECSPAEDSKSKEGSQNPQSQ

Row | Structure (SMILES) | Ki (Estrogen receptor [3]) | Efficacy (Estrogen receptor beta [4]) | Ki (Estrogen receptor beta [5]) | IC50 (MCF7 [8]) | Efficacy [9] | Efficacy (Estrogen receptor beta [10]) | Efficacy [11] | IC50 (Estrogen receptor [14]) | IC50 [15] | inhibition (Mus musculus [17]) | EC50 (Estrogen receptor beta [18]) | further results
1 | CC/C(=C(\c1ccccc1)c1ccc(OCCN(C)C)cc1)c1ccccc1 [TAMOXIFEN] | – | – | – | – | – | – | – | – | – | – | – | inhibition in vivo at 25 mg/kg (MCF7 [1]): 33%; Activity (MCF7 [2]): 48%
2 | COc1cc(/C=C/c2ccc(OS(=O)(=O)C3CC4OC3C(c3ccc(O)cc3)=C4c3ccc(O)cc3)cc2)cc(OC)c1 (centres undefined) | 34.9 nM | 32% | 0.0734 µM | 3.7 µM | 9 to 23% | 23% | 48% | 7 nM | 0.44 µM | 95.6% | 4 nM | IC50 (Estrogen receptor beta [6]): 934 nM; inhibition in vivo at 25 mg/kg (MCF7 [1]): ≤ 69%; Activity (MCF7 [7]): Active; inhibition (Mus musculus [12]): Active; Activity (MCF7 [13]): inactive; Activity (MCF7 [2]): 55%; inhibition (Mus musculus [16]): Active; inhibition (Mus musculus [19]): Active; Activity (Mus musculus [20]): Non-Toxic
3 | O=S(=O)(Oc1ccccc1)[C@H]1C[C@@H]2O[C@@H]1C(c1ccc(O)cc1)=C2c1ccc(O)cc1 (relative stereo) | – | – | – | 32 µM | – | – | – | – | 18.4 µM | 41.5% | – | IC50 (MCF7 [21]): 25.4 µM; IC50 [22]: 11 µM; inhibition (Mus musculus [23]): 80.4%
4 | Oc1ccc(/C=C/c2cc(O)cc(O)c2)cc1 [RESVERATROL] | – | – | – | 22.9 µM | – | – | – | – | 13.1 µM | 48% | – | IC50 [24]: 11 µM; IC50 (MCF7 [25]): 25.4 µM; inhibition (Mus musculus [26]): 80.4%
5 | COc1cc(/C=C/c2ccc(C3=C(c4ccc(O)cc4)C4CC(S(=O)(=O)Oc5ccc(Br)cc5)C3O4)cc2)cc(OC)c1 (centres undefined) | > 10000 nM | 94% | > 10 µM | > 100 µM | 18% | 6% | 97% | 9270 nM | > 100 µM | 30.8% | – | –
6 | COc1cc(/C=C/c2ccc(C3=C(c4ccc(O)cc4)C4CC(S(=O)(=O)Oc5ccccc5)C3O4)cc2)cc(OC)c1 (centres undefined) | > 10000 nM | 85% | > 10 µM | > 100 µM | 10% | 57% | 89% | – | > 100 µM | 20.4% | 5760 nM | –
7 | Cc1ccc(OS(=O)(=O)C2CC3OC2C(c2ccc(/C=C/c4cc(O)cc(O)c4)cc2)=C3c2ccc(O)cc2)cc1 (centres undefined) | – | 42% | – | 9.2 µM | 77% | 29% | 1% | 2 nM | 12.5 µM | 42.3% | 780 nM | IC50 (Estrogen receptor beta [6]): 69 nM; EC50 (Estrogen receptor [27]): 71 nM
8 | O=S(=O)(Oc1ccccc1C(F)(F)F)C1CC2OC1C(c1ccc(/C=C/c3cc(O)cc(O)c3)cc1)=C2c1ccc(O)cc1 (centres undefined) | 499 nM | 82% | – | 18.3 µM | -24% | 48% | 3% | – | 17.2 µM | 38.5% | 2900 nM | –
